Source: PubChem BioAssay (NCI)
“And” between values parts separate entries of the source, which are not always exact repeats. Equal values may be shown once.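 Where inhibition never reached the appropriate level, the endpoint shown equals the highest concentration tested. Otherwise, values were interpolated linearly from a five-concentration, 48-hour dose response in 96-well plates. Abbreviation: GI50, concentration required for 50% inhibition of growth. The concentration for full growth arrest is given as TGI.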

Assays:
Experiment in all cases: NCI tumour cell line growth inhibition, 48 h
A498 renal = tested on: A498 renal
A549 NSCLC = tested on: A549 NSCLC
CAKI-1 renal = tested on: CAKI-1 renal
CCRF-CEM leukemia = tested on: CCRF-CEM leukemia
COLO 205 colon = tested on: COLO 205 colon
DLD-1 colon = tested on: DLD-1 colon
DMS 114 small cell lung = tested on: DMS 114 small cell lung
DMS 273 small cell lung = tested on: DMS 273 small cell lung
EKVX NSCLC = tested on: EKVX NSCLC
HCC-2998 colon = tested on: HCC-2998 colon
HCT-116 colon = tested on: HCT-116 colon
HCT-15 colon = tested on: HCT-15 colon
HOP-18 NSCLC = tested on: HOP-18 NSCLC
HOP-62 NSCLC = tested on: HOP-62 NSCLC
HOP-92 NSCLC = tested on: HOP-92 NSCLC
HT29 colon = tested on: HT29 colon
IGROV1 ovarian = tested on: IGROV1 ovarian
K-562 leukemia = tested on: K-562 leukemia
KM12 colon = tested on: KM12 colon
KM20L2 colon = tested on: KM20L2 colon
LOX IMVI melanoma = tested on: LOX IMVI melanoma
M19-MEL melanoma = tested on: M19-MEL melanoma
MALME-3M melanoma = tested on: MALME-3M melanoma
MCF7 breast = tested on: MCF7 breast
MOLT-4 leukemia = tested on: MOLT-4 leukemia
NCI-H226 lung = tested on: NCI-H226 lung
NCI-H23 lung = tested on: NCI-H23 lung
NCI-H460 lung = tested on: NCI-H460 lung
NCI-H522 lung = tested on: NCI-H522 lung
NCI/ADR-RES ovarian = tested on: NCI/ADR-RES ovarian
OVCAR-3 ovarian = tested on: OVCAR-3 ovarian
OVCAR-4 ovarian = tested on: OVCAR-4 ovarian
OVCAR-5 ovarian = tested on: OVCAR-5 ovarian
OVCAR-8 ovarian = tested on: OVCAR-8 ovarian
P388 leukemia = tested on: P388 leukemia
P388/ADR leukemia = tested on: P388/ADR leukemia
RPMI-8226 leukemia = tested on: RPMI-8226 leukemia
RXF 393 renal = tested on: RXF 393 renal
SF-268 CNS = tested on: SF-268 CNS
SF-295 CNS = tested on: SF-295 CNS
SF-539 CNS = tested on: SF-539 CNS
SK-MEL-2 melanoma = tested on: SK-MEL-2 melanoma
SK-MEL-28 melanoma = tested on: SK-MEL-28 melanoma
SK-MEL-5 melanoma = tested on: SK-MEL-5 melanoma
SK-OV-3 ovarian = tested on: SK-OV-3 ovarian
SN12C renal = tested on: SN12C renal
SN12K1 renal = tested on: SN12K1 renal
SNB-19 CNS = tested on: SNB-19 CNS
SNB-75 CNS = tested on: SNB-75 CNS
SNB-78 CNS = tested on: SNB-78 CNS
SW-620 colon = tested on: SW-620 colon
U251 CNS = tested on: U251 CNS
UACC-257 melanoma = tested on: UACC-257 melanoma
UACC-62 melanoma = tested on: UACC-62 melanoma
UO-31 renal = tested on: UO-31 renal
XF 498 CNS = tested on: XF 498 CNS
LXFL 529 NSCLC = tested on: LXFL 529 NSCLC
MDA-N = tested on: MDA-N
786-0 renal = tested on: 786-0 renal
ACHN renal = tested on: ACHN renal
HL-60(TB) leukemia = tested on: HL-60(TB) leukemia
M14 melanoma = tested on: M14 melanoma
RXF-631 renal = tested on: RXF-631 renal
TK-10 renal = tested on: TK-10 renal

`COc1cc2cc3c4cc(OC)c(OC)cc4cc[n+]3cc2cc1OC` was tested, and the TGI (A498 renal) was over 100 µM, the TGI (A549 NSCLC) was over 100 µM and the TGI (CAKI-1 renal) was over 100 µM. The TGI (CCRF-CEM leukemia) was over 100 µM, the TGI (COLO 205 colon) was over 100 µM and the TGI (DLD-1 colon) was over 100 µM. It also gave a TGI (DMS 114 small cell lung) of 6.6 µM, a TGI (DMS 273 small cell lung) of over 100 µM and a TGI (EKVX NSCLC) of over 100 µM. The TGI (HCC-2998 colon) was over 100 µM, the TGI (HCT-116 colon) was over 100 µM and the TGI (HCT-15 colon) was over 100 µM. The TGI (HOP-18 NSCLC) was over 100 µM, the TGI (HOP-62 NSCLC) was over 100 µM and the TGI (HOP-92 NSCLC) was over 100 µM. For the same compound, the TGI (HT29 colon) was over 100 µM, the TGI (IGROV1 ovarian) was over 100 µM and the TGI (K-562 leukemia) was over 100 µM. It also gave a TGI (KM12 colon) of over 100 µM, a TGI (KM20L2 colon) of over 100 µM and a TGI (LOX IMVI melanoma) of over 100 µM. The TGI (M19-MEL melanoma) was over 100 µM, the TGI (MALME-3M melanoma) was over 100 µM and the TGI (MCF7 breast) was over 31.6 µM. It also gave a TGI (MOLT-4 leukemia) of over 96.8 µM, a TGI (NCI-H226 lung) of over 100 µM and a TGI (NCI-H23 lung) of over 100 µM. For the same compound, the TGI (NCI-H460 lung) was over 100 µM, the TGI (NCI-H522 lung) was over 100 µM and the TGI (NCI/ADR-RES ovarian) was over 100 µM. It also gave a TGI (OVCAR-3 ovarian) of over 73.3 µM, a TGI (OVCAR-4 ovarian) of over 100 µM and a TGI (OVCAR-5 ovarian) of over 100 µM. It also gave a TGI (OVCAR-8 ovarian) of over 100 µM, a TGI (P388 leukemia) of over 100 µM and a TGI (P388/ADR leukemia) of over 100 µM. It also gave a TGI (RPMI-8226 leukemia) of over 100 µM, a TGI (RXF 393 renal) of over 100 µM and a TGI (SF-268 CNS) of over 100 µM. It also gave a TGI (SF-295 CNS) of over 100 µM, a TGI (SF-539 CNS) of over 100 µM and a TGI (SK-MEL-2 melanoma) of over 100 µM. For the same compound, the TGI (SK-MEL-28 melanoma) was over 100 µM, the TGI (SK-MEL-5 melanoma) was over 100 µM and the TGI (SK-OV-3 ovarian) was over 100 µM. It also gave a TGI (SN12C renal) of over 100 µM, a TGI (SN12K1 renal) of over 100 µM and a TGI (SNB-19 CNS) of over 100 µM. The TGI (SNB-75 CNS) was over 100 µM, the TGI (SNB-78 CNS) was over 100 µM and the TGI (SW-620 colon) was over 100 µM. The TGI (U251 CNS) was over 100 µM, the TGI (UACC-257 melanoma) was over 100 µM and the TGI (UACC-62 melanoma) was over 100 µM. For the same compound, the TGI (UO-31 renal) was over 100 µM and the TGI (XF 498 CNS) was over 100 µM.
With `CC(=O)O[C@H]1C(=O)[C@@]2(C)[C@H]([C@H](OC(=O)c3ccccc3)[C@]3(O)C[C@H](OC(=O)[C@H](O)[C@@H](NC(=O)c4ccccc4)c4ccccc4)C(C)=C1C3(C)C)[C@]1(OC(C)=O)CO[C@@H]1C[C@@H]2O` the TGI (A549 NSCLC) was 25 µM and > 100 µM and 67.7 µM, the GI50 (DLD-1 colon) was 0.0551 µM and the TGI (DLD-1 colon) was 24.4 µM and > 100 µM. The TGI (DMS 114 small cell lung) was 0.0217 µM, the TGI (DMS 273 small cell lung) was 3.68 µM and the TGI (HOP-18 NSCLC) was 25 µM. For the same compound, the GI50 (LXFL 529 NSCLC) was 0.00356 µM, the TGI (LXFL 529 NSCLC) was 55.2 µM and the TGI (MCF7 breast) was 15.1 µM and 88.4 µM and 56.1 µM. For the same compound, the GI50 (MDA-N) was 0.0025 µM and 0.0231 µM, the TGI (NCI/ADR-RES ovarian) was 15.1 µM and > 100 µM and 37.5 µM and the TGI (P388 leukemia) was 25 µM. The TGI (P388/ADR leukemia) was 25 µM, the TGI (SK-MEL-28 melanoma) was 25 µM and > 71 µM and the TGI (SN12K1 renal) was 25 µM. The GI50 (SNB-78 CNS) was 0.087 µM, the TGI (SNB-78 CNS) was 24.3 µM and 45.1 µM and the TGI (XF 498 CNS) was 0.0355 µM.
Compound `CCOc1ccc(N=Cc2ccc3cc(C)ccc3n2)cc1` has a TGI (786-0 renal) of over 100 µM, a TGI (A498 renal) of over 100 µM and a TGI (A549 NSCLC) of over 100 µM. It also gave a TGI (ACHN renal) of over 100 µM, a TGI (CAKI-1 renal) of over 100 µM and a TGI (CCRF-CEM leukemia) of 60.6 µM. It also gave a TGI (COLO 205 colon) of over 100 µM, a TGI (DLD-1 colon) of over 100 µM and a TGI (DMS 114 small cell lung) of over 100 µM. The TGI (DMS 273 small cell lung) was over 100 µM, the TGI (EKVX NSCLC) was over 100 µM and the TGI (HCC-2998 colon) was over 100 µM. For the same compound, the TGI (HCT-15 colon) was over 100 µM, the TGI (HL-60(TB) leukemia) was 48 µM and the TGI (HOP-18 NSCLC) was over 100 µM. The TGI (HOP-62 NSCLC) was over 100 µM, the TGI (HOP-92 NSCLC) was over 100 µM and the TGI (HT29 colon) was over 100 µM. For the same compound, the TGI (IGROV1 ovarian) was over 100 µM, the TGI (K-562 leukemia) was 69.8 µM and the TGI (KM12 colon) was over 100 µM. The TGI (KM20L2 colon) was over 100 µM, the TGI (LOX IMVI melanoma) was over 100 µM and the TGI (LXFL 529 NSCLC) was over 100 µM. The TGI (M14 melanoma) was over 100 µM, the TGI (M19-MEL melanoma) was over 100 µM and the TGI (MALME-3M melanoma) was over 100 µM. It also gave a TGI (MOLT-4 leukemia) of 76.7 µM, a TGI (NCI-H226 lung) of over 100 µM and a TGI (NCI-H23 lung) of over 100 µM. It also gave a TGI (NCI-H460 lung) of over 100 µM, a TGI (NCI-H522 lung) of over 100 µM and a TGI (OVCAR-3 ovarian) of over 100 µM. It also gave a TGI (OVCAR-4 ovarian) of over 100 µM, a TGI (OVCAR-5 ovarian) of over 100 µM and a TGI (OVCAR-8 ovarian) of over 100 µM. It also gave a TGI (RPMI-8226 leukemia) of 57.3 µM, a TGI (RXF 393 renal) of over 100 µM and a TGI (RXF-631 renal) of over 100 µM. For the same compound, the TGI (SF-268 CNS) was over 100 µM, the TGI (SF-295 CNS) was over 100 µM and the TGI (SF-539 CNS) was over 100 µM. For the same compound, the TGI (SK-MEL-2 melanoma) was over 100 µM, the TGI (SK-MEL-28 melanoma) was over 100 µM and the TGI (SK-MEL-5 melanoma) was over 100 µM. The TGI (SK-OV-3 ovarian) was over 100 µM, the TGI (SN12C renal) was over 100 µM and the TGI (SNB-19 CNS) was over 100 µM. It also gave a TGI (SNB-75 CNS) of over 100 µM, a TGI (SNB-78 CNS) of over 100 µM and a TGI (SW-620 colon) of over 100 µM. The TGI (TK-10 renal) was over 100 µM, the TGI (U251 CNS) was over 100 µM and the TGI (UACC-257 melanoma) was over 100 µM. For the same compound, the TGI (UACC-62 melanoma) was over 100 µM, the TGI (UO-31 renal) was over 100 µM and the TGI (XF 498 CNS) was over 100 µM.
